Assay results from patent US11091478B2 (Fochon Pharmaceuticals, Ltd., priority 2017, dated 2021).

Columns and labels:
RS4;11 cells = test: Cell proliferation assay (MTS), RS4;11 cells, 72 h; type: cell-based; conditions: Homo sapiens, RS4-11, 72 h
Method in brief: (§1)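 RS4;11 and DOHH2 cells at 5000 cells/well in RPMI-1640 with 10% FBS were treated with compound at 1.5–10000 nM final, nine points, at 37 °C, 5% CO2. Exposure was 72 h for RS4;11 and 120 h for DOHH2. MTS was added for 2 h, absorbance read at 490/650 nm, and IC50 calculated.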

DOHH2 cells = test: Cell proliferation assay (MTS), DOHH2 cells, 120 h; type: cell-based; conditions: Homo sapiens, DOHH-2, 120 h
Method in brief: as §1

Row | IC50 (RS4;11 cells) | Structure (SMILES) | IC50 (DOHH2 cells)
1 | 1 nM | CC1(C)CCC(CN2CCN(c3ccc(C(=O)NS(=O)(=O)c4cc5c(c([N+](=O)[O-])c4)N[C@H](CS(C)(=O)=O)CO5)c(Oc4cnc5[nH]ccc5c4)c3)CC2)=C(c2ccc(Cl)cc2)C1 [Example 2-145, (S)-2-((1H-pyrrolo[2,3-b]pyridin-5-yl)oxy)-4-(4-((4′-chloro-5,5-dimethyl-3,4,5,6-tetra-hydro-[1,1′-biphenyl]-2-yl)methyl)piperazin-1-yl)-N-((3-((methylsulfonyl)methyl)-5-nitro-3,4-dihydro-2H-benzo[b][1,4]oxazin-7-yl)sulfonyl)benzamide] | 87 nM
2 | 16 nM | CC1(C)CCC(CN2CCN(c3ccc(C(=O)NS(=O)(=O)c4cc5c(c([N+](=O)[O-])c4)N[C@@H](CS(C)(=O)=O)CO5)c(Oc4cnc5[nH]ccc5c4)c3)CC2)=C(c2ccc(Cl)cc2)C1 [Example 2-147, (R)-2-((1H-pyrrolo[2,3-b]pyridin-5-yl)oxy)-4-(4-((4′-chloro-5,5-dimethyl-3,4,5,6-tetra-hydro-[1,1′-biphenyl]-2-yl)methyl)piperazin-1-yl)-N-((3-((methylsulfonyl)methyl)-5-nitro-3,4-dihdyro-2H-benzo[b][1,4]oxazin-7-yl)sulfonyl)benzamide] | 135 nM
3 | 50 nM | CC1(C)CCC(CN2CCN(c3ccc(C(=O)NS(=O)(=O)c4cc5c(c([N+](=O)[O-])c4)N[C@H](CN4CCS(=O)(=O)CC4)CO5)c(Oc4cnc5[nH]ccc5c4)c3)CC2)=C(c2ccc(Cl)cc2)C1 [Example 2-149, (R)-2-((1H-pyrrolo[2,3-b]pyridin-5-yl)oxy)-4-(4-((4′-chloro-5,5-dimethyl-3,4,5,6-tetra-hydro-[1,1′-biphenyl]-2-yl)methyl)piperazin-1-yl)-N-((3-((1,1-dioxidothiomorpholino)methyl)-5-nitro-3,4-dihydro-2H-benzo[b] [1,4]oxazin-7-yl)sulfonyl)benzamide] | 247 nM
4 | 45 nM | CC1(C)CCC(CN2CCN(c3ccc(C(=O)NS(=O)(=O)c4cc5c(c([N+](=O)[O-])c4)N[C@H](CN4CCC(N=S(C)(C)=O)CC4)CO5)c(Oc4cnc5[nH]ccc5c4)c3)CC2)=C(c2ccc(Cl)cc2)C1 [Example 2-150] | 67 nM
5 | 1 nM | CC1(C)CCC(CN2CCN(c3ccc(C(=O)NS(=O)(=O)c4cc5c(c([N+](=O)[O-])c4)N[C@H](CN4CCC(NS(C)(=O)=O)CC4)CO5)c(Oc4cnc5[nH]ccc5c4)c3)CC2)=C(c2ccc(Cl)cc2)C1 [Example 2-151, (R)-2-((1H-pyrrolo[2,3-b]pyridin-5-yl)oxy)-4-(4-((4′-chloro-5,5-dimethyl-3,4,5,6-tetra-hydro-[1,1′-biphenyl]-2-yl)methyl)piperazin-1-yl)-N-((3-((4-(methylsulfonamido)pi-peridin-1-yl)methyl)-5-nitro-3,4-dihydro-2H-benzo[b][1,4]oxazin-7-yl)sulfonyl)benzamide] | 2 nM
6 | 1 nM | COC(=O)NC1CCN(C[C@@H]2COc3cc(S(=O)(=O)NC(=O)c4ccc(N5CCN(CC6=C(c7ccc(Cl)cc7)CC(C)(C)CC6)CC5)cc4Oc4cnc5[nH]ccc5c4)cc([N+](=O)[O-])c3N2)CC1 [Example 2-152, methyl (R)-(1-((7-(N-(2-((1H-pyrrolo[2,3-b]pyridin-5-yl)oxy)-4-(4-((4′-chloro-5,5-dimethyl-3,4,5,6-tetrahydro-[1,1′-biphenyl]-2-yl)meth-yl)piperazin-1-yl)benzoyl)sulfamoyl)-5-nitro-3,4-dihydro-2H-benzo[b][1,4]oxazin-3-yl)methyl)piperidin-4-yl)carbamate] | 1 nM
7 | 1 nM | CC1(C)CCC(CN2CCN(c3ccc(C(=O)NS(=O)(=O)c4cc5c(c([N+](=O)[O-])c4)N[C@@H](CCN4CCS(=O)(=O)CC4)CO5)c(Oc4cnc5[nH]ccc5c4)c3)CC2)=C(c2ccc(Cl)cc2)C1 [Example 2-153, (S)-2-((1H-pyrrolo[2,3-b]pyridin-5-yl)oxy)-4-(4-((4′-chloro-5,5-dimethyl-3,4,5,6-tetra-hydro-[1,1′-biphenyl]-2-yl)methyl)piperazin-1-yl)-N-((3-(2-(1,1-dioxidothiomorpholino)ethyl)-5-nitro-3,4-dihydro-2H-benzo[b] [1,4]oxazin-7-yl)sulfonyl)benzamide] | 8 nM
8 | 24 nM | CC1(C)CCC(CN2CCN(c3ccc(C(=O)NS(=O)(=O)c4cc5c(c([N+](=O)[O-])c4)N[C@H](CN4CCP(C)(=O)CC4)CO5)c(Oc4cnc5[nH]ccc5c4)c3)CC2)=C(c2ccc(Cl)cc2)C1 [Example 2-154, (R)-2-((1H-pyrrolo[2,3-b]pyridin-5-yl)oxy)-4-(4-((4′-chloro-5,5-dimethyl-3,4,5,6-tetra-hydro-[1,1′-biphenyl]-2-yl)methyl)piperazin-1-yl)-N-((3-((4-methyl-4-oxido-1,4-aza-phosphinan-1-yl)methyl)-5-nitro-3,4-dihydro-2H-benzo[b][1,4]oxazin-7-yl)sulfonyl) benzamide] | 201 nM
9 | 66 nM | CC1(C)CCC(CN2CCN(c3ccc(C(=O)NS(=O)(=O)c4cc5c(c([N+](=O)[O-])c4)N[C@H](CCN4CCP(C)(=O)CC4)CO5)c(Oc4cnc5[nH]ccc5c4)c3)CC2)=C(c2ccc(Cl)cc2)C1 [Example 2-155, (R)-2-((1H-pyrrolo[2,3-b]pyridin-5-yl)oxy)-4-(4-((4′-chloro-5,5-dimethyl-3,4,5,6-tetra-hydro-[1,1′-biphenyl]-2-yl)methyl)piperazin-1-yl)-N-((3-(2-(4-methyl-4-oxido-1,4-aza-phosphinan-1-yl)ethyl)-5-nitro-3,4-dihydro-2H-benzo[b][1,4]oxazin-7-yl)sulfonyl) benzamide] | 459 nM
10 | 19 nM | CC1(C)CCC(CN2CCN(c3ccc(C(=O)NS(=O)(=O)c4cc5c(c([N+](=O)[O-])c4)N[C@H](Cc4ccccc4)CO5)c(Oc4cnc5[nH]ccc5c4)c3)CC2)=C(c2ccc(Cl)cc2)C1 [Example 2-156, (R)-2-((1H-pyrrolo[2,3-b]pyridin-5-yl)oxy)-N-((3-benzyl-5-nitro-3,4-dihdyro-2H-benzo[b][1,4]oxazin-7-yl)sulfonyl)-4-(4-((4′-chloro-5,5-dimethyl-3,4,5,6-tetrahydro-[1,1′-biphenyl]-2-yl)methyl)piperazin-1-yl)benza-mide] | 6 nM
11 | 10 nM | CC1(C)CCC(CN2CCN(c3ccc(C(=O)NS(=O)(=O)c4cc5c(c([N+](=O)[O-])c4)N[C@H](Cc4ccccc4F)CO5)c(Oc4cnc5[nH]ccc5c4)c3)CC2)=C(c2ccc(Cl)cc2)C1 [Example 2-157, (R)-2-((1H-pyrrolo[2,3-b]pyridin-5-yl)oxy)-4-(4-((4′-chloro-5,5-dimethyl-3,4,5,6-tetra-hydro-[1,1′-biphenyl]-2-yl)methyl)piperazin-1-yl)-N-((3-(2-fluorobenzyl)-5-nitro-3,4-dihydro-2H-benzo[b][1,4]oxazin-7-yl)sulfo-nyl)benzamide] | 39 nM
12 | 43 nM | CC1(C)CCC(CN2CCN(c3ccc(C(=O)NS(=O)(=O)c4cc5c(c([N+](=O)[O-])c4)N[C@H](Cc4ccc(F)cc4)CO5)c(Oc4cnc5[nH]ccc5c4)c3)CC2)=C(c2ccc(Cl)cc2)C1 [Example 2-158, (R)-2-((1H-pyrrolo[2,3-b]pyridin-5-yl)oxy)-4-(4-((4′-chloro-5,5-dimethyl-3,4,5,6-tetra-hydro-[1,1′-biphenyl]-2-yl)methyl)piperazin-1-yl)-N-((3-(4-fluorobenzyl)-5-nitro-3,4-dihydro-2H-benzo[b][1,4]oxazin-7-yl)sulfo-nyl)benzamide] | 135 nM
13 | 29 nM | CC1(C)CCC(CN2CCN(c3ccc(C(=O)NS(=O)(=O)c4cc5c(c([N+](=O)[O-])c4)N[C@H](Cc4ccccc4Cl)CO5)c(Oc4cnc5[nH]ccc5c4)c3)CC2)=C(c2ccc(Cl)cc2)C1 [Example 2-159, (R)-2-((1H-pyrrolo[2,3-b]pyridin-5-yl)oxy)-4-(4-((4′-chloro-5,5-dimethyl-3,4,5,6-tetra-hydro-[1,1′-biphenyl]-2-yl)methyl)piperazin-1-yl)-N-((3-(2-chlorobenzyl)-5-nitro-3,4-dihydro-2H-benzo[b][1,4]oxazin-7-yl)sulfo-nyl)benzamide] | 47 nM
14 | 95 nM | CC1(C)CCC(CN2CCN(c3ccc(C(=O)NS(=O)(=O)c4cc5c(c([N+](=O)[O-])c4)N[C@H](Cc4ccc(Cl)cc4)CO5)c(Oc4cnc5[nH]ccc5c4)c3)CC2)=C(c2ccc(Cl)cc2)C1 [Example 2-160, (R)-2-((1H-pyrrolo[2,3-b]pyridin-5-yl)oxy)-4-(4-((4′-chloro-5,5-dimethyl-3,4,5,6-tetra-hydro-[1,1′-biphenyl]-2-yl)methyl)piperazin-yl)-N-((3-(4-chlorobenzyl)-5-nitro-3,4-dihydro-2H-benzo[b][1,4]oxazin-7-yl)sulfo-nyl)benzamide] | 168 nM
15 | 17 nM | COc1ccc(CC2COc3cc(S(=O)(=O)NC(=O)c4ccc(N5CCN(CC6=C(c7ccc(Cl)cc7)CC(C)(C)CC6)CC5)cc4Oc4cnc5[nH]ccc5c4)cc([N+](=O)[O-])c3N2)nc1 (centres unmarked) [Example 2-161, 2-((1H-pyrrolo[2,3-b]pyridin-5-yl)oxy)-4-(4-((4′-chloro-5,5-dimethyl-3,4,5,6-tetrahydro-[1,1′-biphenyl]-2-yl)methyl)piperazin-1-yl)-N-((3-((5-methoxypyridin-2-yl)methyl)-5-nitro-3,4-dihydro-2H-benzo[b][1,4]oxa-zin-7-yl)sulfonyl)benzamide] | 20 nM
16 | 43 nM | COc1ccc(C[C@H]2COc3cc(S(=O)(=O)NC(=O)c4ccc(N5CCN(CC6=C(c7ccc(Cl)cc7)CC(C)(C)CC6)CC5)cc4Oc4cnc5[nH]ccc5c4)cc([N+](=O)[O-])c3N2)nc1 [Example 2-162, (S)-2-((1H-pyrrolo[2,3-b]pyridin-5-yl)oxy)-4-(4-((4′-chloro-5,5-dimethyl-3,4,5,6-tetra-hydro-[1,1′-biphenyl]-2-yl)methyl)piperazin-1-yl)-N-((3-((5-methoxypyridin-2-yl)meth-yl)-5-nitro-3,4-dihydro-2H-benzo[b][1,4]oxain-7-yl)sulfonyl)benzamide] | 325 nM
